{"source": "patent US20030045485A1", "about": "“P53-MEDIATED APOPTOSIS FOR THE THERAPEUTIC TREATMENT OF DISEASES” (priority 1993, published 2003)", "key": {"parental DP16-1 cells": {"tested_on": "parental DP16-1 cells", "assay": "DMSO-induced differentiation of parental DP16-1 cells, benzidine staining", "format": "cell-based, mouse", "details": "two days of exposure to medium containing DMSO", "excerpt": "(§1) MEL cell lines invariability contain mutations of the p53 tumor suppressor gene and express either negligible or mutant p53 protein. During MEL differentiation there is a biphasic decline in expression of the c-myc oncogene although enforced expression of c-myc blocks this differentiation. To determine the relationship between mutant p53 and c-myc in cell differentiation, DP16-1 cells (which have deleted both p53 alleles) were transfected with an amplifiable plasmid vector containing a full-length mouse c-myc cDNA with or without plasmid vector containing a mutant p53 cDNA (p53^pro193). The exogenous c-myc cDNA is transcribed in MEL cells and results in increased expression of c-myc mRNA and protein during DMSO-induced differentiation. Extent of differentiation was monitored by benzidine staining (FIGS. 17A and 17B). When MEL cells are exposed to DMSO, differentiation normally occurs over a five day period. In contrast to the parental DP16-1 cells or DP16-1 cells transfected with pSV2LZquad, c-myc transfected DP16-1 cells or underwent accelerated differentiation. […] Furthermore, c-myc transfected DP16-1 cells stopped growing and eventually lost viability when grown in medium containing 1.6% DMSO. Coincident expression of p53^pro193 with c-myc abolished the accelerated DMSO-induced differentiation seen in cells which expressed c-myc alone."}, "p53^tsneo clones": {"tested_on": "p53^tsneo clones", "assay": "DMSO-induced differentiation of p53^tsneo clones, benzidine staining", "format": "cell-based, mouse", "details": "5 days exposure to 1.6% DMSO at 37.5° C., viable cells isolated through Ficoll-paque", "protocol": "To characterize the consequences of enforced expression of p53 on differentiation, logarithmically growing transfectants were exposed to media containing 1.6% dimethyl sulfoxide (DMSO) and incubated at 37.5° C. Media was changed every other day. Cells underwent growth arrest and subsequently died over a period of 48-96 hours (FIG. 8A; DP16-1 cells, ______, p53^tsneo transfected DP16-1 cells, - - -, and DP16-1 cells co-transfected with c-myb and p53^tsneo, _._._). Viable cells were isolated by centrifugation through Ficoll-paque (Pharmacia). […] This is in contrast to untransfected control DP16-1 cells which, when grown in media containing DMSO, downregulate c-myb mRNA and differentiate while remaining viable (FIG. 8A & 8B). As expected, the p53^ts protein was located in the cytoplasm of the cells growing at 37.5° C. in the absence of DMSO (FIG. 9A, panel a; C4 p53^tsneo DP16-1 cells). […] Thus despite the fact that the cells were grown at 37.5° C., DMSO caused the p53^ts to behave as wild-type p53 tumor suppressor and induced apoptotic cell death. MEL cells can also exit the cell cycle by being stimulated to terminally differentiate. DMSO was used to induce differentiation of p53^tsneo clones at 37.5° C. After 5 days exposure to 1.6% DMSO, viable cells were isolated by centrifugation through Ficoll-paque. […] These cells were placed at 32.5° C. and viability monitored. […]"}, "[1]": {"tested_on": "c-myc transfected DP16-1 cells", "assay": "DMSO-induced differentiation of c-myc transfected DP16-1 cells, benzidine staining", "format": "cell-based, mouse", "details": "two days of exposure to medium containing DMSO", "excerpt": "as §1"}, "[2]": {"tested_on": "p53^tsneo/pMbm1-dhfr co-transfectants (DP16-1 MEL cells)", "assay": "Viability of amplified p53^tsneo/pMbm1-dhfr co-transfectants in 1.6% DMSO", "format": "cell-based, mouse", "details": "amplified c-myb cultures", "excerpt": "To determine how c-myb and p53 interact during MEL cell growth and differentiation, DP16-1 cells were co-transfected with p53^tsneo and pMbm1-dhfr, which encodes a full-length c-myb cDNA under the control of an SV40 promoter (Clarke, et al., supra). […] (FIG. 9A; panel c, C5a p53^tsneo/c-myb transfected DP16-1 cells; panel d, C5a cells). Instead, these cells proliferated for 2-3 days, and then arrested coincident with an increase in benzidine-positive cells (FIG. 11). Viability decreased only after the majority of cells had differentiated. Increased expression of c-myb was selected for by growing transfected cells in higher concentrations of methotrexate (Clarke et al., supra)."}, "[3]": {"tested_on": "p53^tsneo transfected DP16-1 cells", "assay": "Viability of p53^tsneo transfectants in media containing 1.6% DMSO", "format": "cell-based, mouse", "details": "37.5° C., logarithmically growing transfectants", "protocol": "DP16-1 MEL cells were grown in Dulbecco modified minimal essential medium (DMEM) supplemented with 10% calf serum, 2 mM glutamine, 100 U of penicillin per ml, and 100 μg of […] per ml. DNA transfections were performed by electroporation (Prochownik et al., supra). Transfection mixes consisted of 1×10^7 cells in 400 μl transfection buffer (272 mM sucrose, 7 mM phosphate (pH 7.4), 1 mM MgCl2) with either 10 μg p53^tsneo, or 10 μg pSV-2neo, linearized with Bam HI. Transfected cells were selected in media containing 1 mg/ml geneticin (G418; GIBCO). Single-cell clones were isolated by limiting cell dilution in 96-well microtiter plates. To characterize the consequences of enforced expression of p53 on differentiation, logarithmically growing transfectants were exposed to media containing 1.6% dimethyl sulfoxide (DMSO) and incubated at 37.5° C. Media was changed every other day. Cells underwent growth arrest and subsequently died over a period of 48-96 hours (FIG. 8A; DP16-1 cells, ______, p53^tsneo transfected DP16-1 cells, - - -, and DP16-1 cells co-transfected with c-myb and p53^tsneo, _._._). Viable cells were isolated by centrifugation through Ficoll-paque (Pharmacia). […] This is in contrast to untransfected control DP16-1 cells which, when grown in media containing DMSO, downregulate c-myb mRNA and differentiate while remaining viable (FIG. 8A & 8B). […]"}, "[4]": {"tested_on": "CML cells in bone marrow cell culture", "assay": "Purging CML cells from low density mononuclear bone marrow cells with antisense myb", "format": "cell-based", "details": "40 μg/ml, culture changed two times a day for 1-to-three days, after MIP-1α 300 μg/ml for 24 hours", "excerpt": "The most successful purging of bone marrow cells includes from one-to-three non-overlapping techniques. CML cells display antigens which are not present on the hematopoietic stem cells. A large majority of the CML cells that contaminant Marrow samples can initially be removed using antibodies that recognize these CML-specific antigens. Antibodies that can be used include specificities directed to one or more of the following antigens: CD15, CD33, Glycophorin A, CD10, CD2, CD4 and CD8. Antibody-cell conjugates can be removed by either flow cytometry, immuno-magnetic beads or compliment, for example. The remaining CML cells can be killed by incubating the enriched culture in the presence of c-myb antisense oligonucleotides.\nBriefly, mononuclear cells will be isolated from a 5 ml bone marrow aspirate by centrifuging through a ficol-hypaque density gradient. The isolated bone marrow cells (1×10^5 CD34+ progenitor cells) are then cultured in Dexter medium with IL3, SGF and EPO and macrophage inflammatory factor (MIP-1α; 300 μg/ml) for 24 hours and then are cultured in medium containing c-myb antisense oligonucleotides. MIP-1α arrests normal hematopoietic cells in G0 and these cells will therefore be resistant to c-myb antisense. The CML cells, however, are unresponsive to MIP-1α and will continue to cycle. […]"}, "[5]": {"assay": "Viability of G1-arrested p53tsneo clones (mimosine growth arrest)", "format": "cell-based", "details": "mouse, clones C9, C2 and C1 (p53tsneo transfected DP16-1 MEL cells); mimosine 300 μM, late G1 arrest at 37.5° C., after 3-4 days of arrest", "protocol": "(§2) The relationship of p53 induced cell death to the cell cycle was studied in transfected clone C9. Clone C9 cells were synchronized in G0/G1 by density arrest (typically at a concentration of 1-2×10^6 cells/ml) for 48-72 hours at 37.5° C. Cells were stimulated to begin cycling by replating into fresh media at a 1:10 split ratio. Growth arrest with mimosine (Sigma) was accomplished by the addition of 300 μM mimosine to logarithmically growing cells for a period of 24 hours.\n(§3) To rule out that G1 arrest alone induces cell death, clones C9, C2 and C1 were growth arrested with either mimosine (300 μM) (Watson et al., Cytometry 12:242 (1991)) or isoleucine deprivation (Heintz et al., Proc. Natl. Acad. Sci. USA 79:4083 (1982)) at 37.5° C., both of which result in late Gi arrest."}, "[6]": {"tested_on": "clones C9, C2 and C1 (p53^tsneo transfected DP16-1 MEL cells)", "assay": "Viability of G1-arrested p53tsneo clones (mimosine growth arrest)", "format": "cell-based", "details": "mouse, 36 h, 300 μM", "protocol": "as §2, §3"}}, "data": [{"compound": "C[S+](C)[O-]", "note": "[DMSO, dimethyl sulfoxide]", "values": [{"measurement": "Differentiation", "setting": "parental DP16-1 cells", "value": "remained largely undifferentiated"}, {"measurement": "Benzidine positivity", "setting": "p53^tsneo clones", "value": "70-80%"}, {"measurement": "Cells differentiated", "setting": "[1]", "value": "70-80%"}, {"measurement": "Time to loss of viability", "setting": "[2]", "value": "10 to 14", "unit": "days"}, {"measurement": "Period over which cells died after growth arrest", "setting": "[3]", "value": "48 to 96", "unit": "h"}]}, {"compound": "c-myb antisense: c-myb antisense oligonucleotide 5′-GTGCCGGGGTCTTCGGGC-3′ (chemistry not given here)", "values": [{"measurement": "Cells remaining viable in culture", "setting": "[4]", "value": "only the normal hematopoietic cells"}]}, {"compound": "NC(Cn1ccc(=O)c(O)c1)C(=O)O", "note": "(centres unmarked) [mimosine]", "values": [{"measurement": "viability at 300 μM", "setting": "[5]", "value": "~70", "unit": "%"}, {"measurement": "Viability", "setting": "[6]", "value": "less than 5%"}]}]}
